Biological target: human F508del-CFTR (Homo sapiens, UniProt P13569, DEL508-508)
Experiment: F508del-CFTR cell surface expression (corrector activity), DiscoveRx ß-galactosidase complementation chemiluminescence assay in recombinant U2OS cell line;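 further: U2OS cells co-expressing ProLink-tagged F508del-CFTR and a membrane-anchored enzyme acceptor, where more surface CFTR restores β-galactosidase activity measured by chemiluminescence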
Conditions: for EC50: EC50, F508del-CFTR cell surface expression; for Emax: U2OS
[1] = U2OS cell line, 16h compound incubation, geomean values
[2] = in relation to the Emax of the corrector lumacaftor (=100%), U2OS cell line, 16h compound incubation, arithmetic mean values
[3] = U2OS cells, 16h compound incubation, geomean values
[4] = in relation to Emax of corrector lumacaftor (=100%), arithmetic mean values
[5] = U2OS cells, 16h compound incubation, geomean of several measurements
[6] = in relation to the Emax of the corrector lumacaftor (=100%), U2OS cells, 16h compound incubation, arithmetic mean

Chain of human F508del-CFTR (P13569 with tags, fused parts or gaps DEL508-508): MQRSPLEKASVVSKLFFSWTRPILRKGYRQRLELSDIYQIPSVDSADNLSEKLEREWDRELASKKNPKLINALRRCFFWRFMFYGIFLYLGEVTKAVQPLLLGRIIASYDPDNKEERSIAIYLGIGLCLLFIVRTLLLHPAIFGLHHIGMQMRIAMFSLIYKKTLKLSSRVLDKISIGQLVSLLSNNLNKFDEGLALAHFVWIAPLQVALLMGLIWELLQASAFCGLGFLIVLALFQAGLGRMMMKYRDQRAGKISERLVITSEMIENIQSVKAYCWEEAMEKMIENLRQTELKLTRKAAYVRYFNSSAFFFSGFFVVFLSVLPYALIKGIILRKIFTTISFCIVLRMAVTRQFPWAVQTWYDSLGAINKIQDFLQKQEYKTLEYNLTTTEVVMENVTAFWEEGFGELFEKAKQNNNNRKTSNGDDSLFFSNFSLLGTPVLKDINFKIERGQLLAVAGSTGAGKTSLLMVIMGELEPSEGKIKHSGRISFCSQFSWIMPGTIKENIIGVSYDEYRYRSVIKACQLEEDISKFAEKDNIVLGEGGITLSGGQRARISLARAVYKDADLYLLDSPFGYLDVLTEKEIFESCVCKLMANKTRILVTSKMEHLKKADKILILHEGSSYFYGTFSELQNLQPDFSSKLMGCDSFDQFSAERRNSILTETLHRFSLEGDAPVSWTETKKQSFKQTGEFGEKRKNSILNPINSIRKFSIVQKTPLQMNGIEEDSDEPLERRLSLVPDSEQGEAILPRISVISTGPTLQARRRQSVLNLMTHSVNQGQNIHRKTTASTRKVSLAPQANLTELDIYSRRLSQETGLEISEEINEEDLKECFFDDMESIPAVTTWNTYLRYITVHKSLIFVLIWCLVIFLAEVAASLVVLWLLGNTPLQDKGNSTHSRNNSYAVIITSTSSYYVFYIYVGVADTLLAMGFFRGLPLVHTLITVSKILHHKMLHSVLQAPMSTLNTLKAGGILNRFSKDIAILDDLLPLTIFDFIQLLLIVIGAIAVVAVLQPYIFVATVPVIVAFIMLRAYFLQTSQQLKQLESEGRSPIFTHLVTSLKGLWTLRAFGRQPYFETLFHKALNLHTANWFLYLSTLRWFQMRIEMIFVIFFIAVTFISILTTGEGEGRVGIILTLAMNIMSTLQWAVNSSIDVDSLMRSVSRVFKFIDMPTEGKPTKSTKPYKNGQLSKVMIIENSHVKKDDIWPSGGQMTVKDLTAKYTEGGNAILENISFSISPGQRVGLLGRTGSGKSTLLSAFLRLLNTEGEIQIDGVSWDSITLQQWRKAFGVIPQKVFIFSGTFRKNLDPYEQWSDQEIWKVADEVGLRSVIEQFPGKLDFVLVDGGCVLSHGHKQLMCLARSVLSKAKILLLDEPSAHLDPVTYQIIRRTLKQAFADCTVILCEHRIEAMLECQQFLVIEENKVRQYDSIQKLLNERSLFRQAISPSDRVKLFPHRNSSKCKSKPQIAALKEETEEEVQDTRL

Structure (SMILES) | EC50 [1] [nM] | Emax [2] [%] | EC50 [3] [nM] | Emax [4] [%] | further results
CC(C)C[C@H]1C(=O)N(CCC2CCCCC2)CC(=O)N[C@H](Cc2ccccc2)COc2cc3ccccc3cc2C(=O)N[C@H](C(=O)NCCc2ccc3c(c2)OCO3)CC(=O)N1C [Example 250, (3R,9S,13S)-N-(2-(benzo[d][1,3]dioxol-5-yl)ethyl)-3-benzyl-7-(2-cyclohexylethyl)-9-isobutyl-10-methyl-5,8,11,15-tetraoxo-2,3,4,5,6,7,8,9,10,11,12,13,14,15-tetradecahydronaphtho[2,3-p][1]oxa[4,7,10,14]tetraazacycloheptadecine-13-carboxamide] | 86 | 160 |  |  | 
CO[C@H]1C[C@]2(C1)C(=O)N[C@H](Cc1ccccc1)COc1ccc3ccccc3c1C(=O)N[C@H](C(=O)NCCc1ccc(-n3nccn3)cc1)CC(=O)N(C)[C@@H](CC(C)C)C(=O)N2C [Example 492, (1r,3S,3′S,7′S,13′R)-N-(4-(2H-1,2,3-triazol-2-yl)phenethyl)-13′-benzyl-7′-isobutyl-3-methoxy-6′,9′-dimethyl-1′,5′,8′,11′-tetraoxo-2′,3′,4′,5′,6′,7′,8′,9′,11′,12′,13′,14′-dodecahydro-1′H-spiro[cyclobutane-1,10′-naphtho[1,2-p][1]oxa[4,7,10,14]tetraazacycloheptadecine]-3′-carboxamide] |  |  | 305 | 168 | 
COc1nccc2c1C(=O)N[C@H](C(=O)NCCc1cc(C3CC3)on1)CC(=O)N(C)[C@@H](CC(C)C)C(=O)N(C)[C@H](CC1CCC(F)(F)CC1)C(=O)N[C@H](Cc1ccccc1)CO2 [Example 682, (3R,6R,9S,13S)-3-benzyl-N-(2-(5-cyclopropylisoxazol-3-yl)ethyl)-6-((4,4-difluorocyclohexyl)methyl)-9-isobutyl-16-methoxy-7,10-dimethyl-5,8,11,15-tetraoxo-2,3,4,5,6,7,8,9,10,11,12,13,14,15-tetradecahydropyrido[3,4-p][1]oxa[4,7,10,14]tetraazacycloheptadecine-13-carboxamide] |  |  | 110 | 351 | 
COc1cccc2c1C(=O)N[C@H](C(=O)NCCc1ccc3c(c1)OCO3)CC(=O)N(C)[C@@H](CC1CCCC1)C(=O)N(C[C@@H]1CCCCO1)CC(=O)N[C@H](Cc1ccccc1)CO2 [Example 308, (3R,9S,13S)-N-(2-(benzo[d][1,3]dioxol-5-yl)ethyl)-3-benzyl-9-(cyclopentylmethyl)-16-methoxy-10-methyl-5,8,11,15-tetraoxo-7-(((S)-tetrahydro-2H-pyran-2-yl)methyl)-2,3,4,5,6,7,8,9,10,11,12,13,14,15-tetradecahydrobenzo[p][1]oxa[4,7,10,14]tetraazacycloheptadecine-13-carboxamide] | 469 | 103 |  |  | 
COc1cccc(CCNC(=O)[C@@H]2CC(=O)N(C)[C@@H](CC(C)C)C(=O)N(C)C3(CC3)C(=O)N[C@H](Cc3ccccc3)COc3ccc4ccccc4c3C(=O)N2)c1 [Example 385, (3′S,7′S,13′R)-13′-benzyl-7′-isobutyl-N-(3-methoxyphenethyl)-6′,9′-dimethyl-1′,5′,8′,11′-tetraoxo-2′,3′,4′,5′,6′,7′,8′,9′,11′,12′,13′,14′-dodecahydro-1′H-spiro[cyclopropane-1,10′-naphtho[1,2-p][1]oxa[4,7,10,14]tetraazacycloheptadecine]-3′-carboxamide] | 191 | 326 |  |  | 
CC(C)C[C@H]1C(=O)N(C)C2(CC2)C(=O)N[C@H](Cc2ccccc2)COc2ccc3ncc(F)cc3c2C(=O)N[C@H](C(=O)NCCn2nnc(C3CC3)n2)CC(=O)N1C [Example 817, (3′S,7′S,13′R)-13′-benzyl-N-(2-(5-cyclopropyl-2H-tetrazol-2-yl)ethyl)-20′-fluoro-7′-isobutyl-6′,9′-dimethyl-1′,5′,8′,11′-tetraoxo-2′,3′,4′,5′,6′,7′,8′,9′,11′,12′,13′,14′-dodecahydro-1′H-spiro[cyclopropane-1,10′-[1]oxa[4,7,10,14]tetraazacycloheptadecino[16,17-f]quinoline]-3′-carboxamide] |  |  |  |  | EC50 [5]: 420 nM; Emax [6]: 375%
COc1nccc2c1C(=O)N[C@H](C(=O)NCCc1cc(C3CC3)no1)CC(=O)N(C)[C@@H](CC(C)C)C(=O)N1CC[C@@H](c3ccccc3)C[C@H]1C(=O)N[C@H](Cc1ccccc1)CO2 (single isomer, unassigned) [Example 671] |  |  | 235 | 179 | 
COc1cc(CCNC(=O)[C@@H]2CC(=O)N(C)[C@@H](CC(C)C)C(=O)N(C)[C@@H](CC(F)(F)F)C(=O)N[C@H](Cc3ccccc3)COc3ccc4nc(C)oc4c3C(=O)N2)on1 (mixture of isomers) [Example 974, (8R,11RS,14S,18S)-8-benzyl-14-isobutyl-N-(2-(3-methoxyisoxazol-5-yl)ethyl)-2,12,15-trimethyl-10,13,16,20-tetraoxo-11-(2,2,2-trifluoroethyl)-7,8,9,10,11,12,13,14,15,16,17,18,19,20-tetradecahydrooxazolo[4′,5′:5,6]benzo[1,2-p][1]oxa[4,7,10,14]tetraazacycloheptadecine-18-carboxamide] |  |  |  |  | EC50 [5]: 703 nM; Emax [6]: 440%
Cc1nc2ccc3c(c2o1)C(=O)N[C@H](C(=O)NCCc1cc(-c2ccccc2)no1)CC(=O)N(C)[C@@H](CC(C)C)C(=O)N(C)C1(CC1)C(=O)N[C@H](Cc1ccccc1)CO3 [Example 761, (8′R,14'S,18'S)-8′-Benzyl-14′-isobutyl-2′,12′,15′-trimethyl-10′,13′,16′,20′-tetraoxo-N-(2-(3-phenylisoxazol-5-yl)ethyl)-7′,8′,9′,10′,13′,14′,15′,16′,17′,18′,19′,20′-dodecahydro-12′H-spiro[cyclopropane-1,11′-oxazolo[4′,5′:5,6]benzo[1,2-p][1]oxa[4,7,10,14]tetraazacycloheptadecine]-18′-carboxamide] |  |  | 676 | 202 | 
CC(C)C[C@H]1C(=O)N2CCOC[C@@H]2C(=O)N[C@H](Cc2ccccc2)COc2ccc3ccccc3c2C(=O)N[C@H](C(=O)NCCc2nc3ccccc3o2)CC(=O)N1C [Example 327, (4aR,7R,18S,22S)-N-(2-(benzo[d]oxazol-2-yl)ethyl)-7-benzyl-22-isobutyl-21-methyl-5,16,20,23-tetraoxo-1,2,4,4a,5,6,7,8,16,17,18,19,20,21,22,23-hexadecahydronaphtho[1,2-p][1,4]oxazino[3,4-f][1]oxa[4,7,10,14]tetraazacycloheptadecine-18-carboxamide] | 461 | 225 |  |  | 
CC[C@@H]1C(=O)N[C@H](Cc2ccccc2)COc2cc(C)nc(OC)c2C(=O)N[C@H](C(=O)NCCc2cc(C)no2)CC(=O)N(C)[C@@H](CC(C)C)C(=O)N1C [Example 773, (3R,6R,9S,13S)-3-benzyl-6-ethyl-9-isobutyl-16-methoxy-7,10,18-trimethyl-N-(2-(3-methylisoxazol-5-yl)ethyl)-5,8,11,15-tetraoxo-2,3,4,5,6,7,8,9,10,11,12,13,14,15-tetradecahydropyrido[3,4-p][1]oxa[4,7,10,14]tetraazacycloheptadecine-13-carboxamide] |  |  | 841 | 339 | 

Reference: patent US20240208992A1, “MACROCYCLES AS CFTR MODULATORS” (Idorsia Pharmaceuticals Ltd, priority 2021, published 2024)
